The values that follow come from publication PMC10248867, “Receptor-like cytoplasmic kinase ScRIPK in sugarcane regulates disease resistance and drought tolerance in Arabidopsis” (Frontiers in Plant Science, 2023).

What all share (test): X-ray crystal structure, […] A
What all share (assay type): binding

Assay [1] has as its target T1, ScRIPK-KD (ScRIPK kinase domain) (Saccharum hybrid cultivar, UniProt A0ACD6BAX3, K58R).
T1 construct: gene NCGR_LOCUS634; kinase domain 72-378 of 425 aa; PRSF-duet vector, Ni-NTA purified from E. coli BL21(DE3); wild type autophosphorylated at T250, S253, T254; one kinase domain per asymmetric unit
As to conditions: crystallised in 0.1 M HEPES pH 7.5, 4.3 M sodium chloride, 291 K; active site.

The target of assay [2] is T2, ScRIPK-KD (ScRIPK kinase domain) (Saccharum hybrid cultivar, UniProt A0ACD6BAX3).
T2 construct: gene NCGR_LOCUS634; kinase domain 72-378 of 425 aa; PRSF-duet vector, Ni-NTA purified from E. coli BL21(DE3); wild type autophosphorylated at T250, S253, T254; one kinase domain per asymmetric unit
T2 sequence (A0ACD6BAX3 entry or part of it): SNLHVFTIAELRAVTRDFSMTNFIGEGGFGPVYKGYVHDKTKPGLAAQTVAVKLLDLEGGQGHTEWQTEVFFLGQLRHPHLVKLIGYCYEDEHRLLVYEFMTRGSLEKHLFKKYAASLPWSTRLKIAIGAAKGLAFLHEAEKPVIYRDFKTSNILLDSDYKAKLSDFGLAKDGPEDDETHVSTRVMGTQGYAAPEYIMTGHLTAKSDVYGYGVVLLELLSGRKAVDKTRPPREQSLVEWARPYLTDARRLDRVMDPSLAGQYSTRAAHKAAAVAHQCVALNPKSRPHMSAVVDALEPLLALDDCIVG
Conditions: Mg2+ bound; crystallised in 0.1 M HEPES pH 7.5, 40% v/v PEG 400, 291 K; active site.

In assay [3] the target is T3, ScRIPK-KD (ScRIPK kinase domain) (Saccharum hybrid cultivar, UniProt A0ACD6BAX3, S187A/T188A).
T3 construct: gene NCGR_LOCUS634; kinase domain 72-378 of 425 aa; PRSF-duet vector, Ni-NTA purified from E. coli BL21(DE3); wild type autophosphorylated at T250, S253, T254; one kinase domain per asymmetric unit
T3 sequence (A0ACD6BAX3 entry or part of it S187A/T188A): as the sequence (A0ACD6BAX3 entry or part of it) above, with S182A, T183A counted along it
Conditions: crystallised in 0.1 M HEPES pH 7.5, 4.3 M sodium chloride, 291 K; active site.

T1 sequence (A0ACD6BAX3 entry or part of it K58R): as the sequence (A0ACD6BAX3 entry or part of it) above, with K53R counted along it

Take `Nc1ncnc2c1ncn2[C@@H]1O[C@H](COP(=O)(O)OP(=O)(O)OP(=O)(O)O)[C@@H](O)[C@H]1O` [ATP]: the “X-ray crystal structure, 1.68 A” value in assay [1] is “the mutant protein ScRIPK-KD K124R was purified and crystallized with ATP”. Further, the “X-ray crystal structure, 2.10 A” value in assay [2] is recorded as “The ScRIPK-ATP protein complex crystal was successfully obtained in the reservoir solution”.

Turning to `Nc1ncnc2c1ncn2[C@@H]1O[C@H](COP(=O)(O)OP(=O)(O)O)[C@@H](O)[C@H]1O` [ADP], in assay [3], the “X-ray crystal structure, 1.95 A” value was “In the ScRIPK-KD S253A|T254A mutant structure, Y169 and E170–M172 formed a deep cavity”.
